Reference: PubChem BioAssay (NCI)
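Five compound concentrations were applied to cells in 96-well plates for 48 hours; endpoints were derived by simple linear interpolation of the resulting dose-response curve. GI50 is the concentration that inhibits growth by half. The concentration for full growth arrest is given as TGI.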 Where a SMILES comes first, the peptide text is derived from it.

Key:
Assay in all cases: growth of human tumour cells (NCI), 48 h
SW-620 colon = system: SW-620 colon
BT-549 breast = system: BT-549 breast
HOP-62 NSCLC = system: HOP-62 NSCLC
TK-10 renal = system: TK-10 renal
SK-MEL-28 melanoma = system: SK-MEL-28 melanoma
HCT-15 colon = system: HCT-15 colon
EKVX NSCLC = system: EKVX NSCLC
MDA-MB-435 = system: MDA-MB-435
HCT-116 colon = system: HCT-116 colon
K-562 leukemia = system: K-562 leukemia

| SMILES | TGI (SW-620 colon) [µM] | TGI (BT-549 breast) [µM] | TGI (HOP-62 NSCLC) [µM] | TGI (TK-10 renal) [µM] | TGI (SK-MEL-28 melanoma) [µM] | TGI (HCT-15 colon) [µM] | TGI (EKVX NSCLC) [µM] | TGI (MDA-MB-435) [µM] | TGI (HCT-116 colon) [µM] | TGI (K-562 leukemia) [µM] | GI50 (SW-620 colon) [µM] | GI50 (BT-549 breast) [µM] | GI50 (TK-10 renal) [µM] | GI50 (SK-MEL-28 melanoma) [µM] | GI50 (K-562 leukemia) [µM] | GI50 (HCT-15 colon) [µM] | GI50 (EKVX NSCLC) [µM] | GI50 (MDA-MB-435) [µM] | GI50 (HCT-116 colon) [µM] |
| --- | --- | --- | --- | --- | --- | --- | --- | --- | --- | --- | --- | --- | --- | --- | --- | --- | --- | --- | --- |
| CCC(C)C(NC(=O)C1CCCN1C(=O)C(CC(C)C)NC(=O)C(CC(C)C)NC(=O)C(N)CC(C)C)C(=O)NC(C(=O)NCC(=O)NC(CC(N)=O)C(=O)NC(CC(C)C)C(=O)NC(CC(C)C)C(=O)NC(CC(C)C)C(N)=O)C(C)C (stereo unspecified) (H-LLLPIVGNLLL-NH2; configuration not given here) | > 50 | > 50 | > 50 | > 50 | > 50 | > 50 | > 50 | > 50 | > 50 | – | – | – | – | – | – | – | – | – | – |
| Cc1cnoc1NS(=O)(=O)c1ccc(Nc2nnc(/C=C/c3c(O)ccc4ccccc34)c(=O)n2N)cc1 | > 100 | 53.9 | > 100 | – | – | 61.5 | 71.9 | 76.3 | 55.9 | 82.9 | – | – | – | – | – | – | – | – | – |
| Cc1nc2ncn3c(c-2c1Cc1ccccc1)NC=C(O)N3 | > 100 | > 100 | > 100 | > 100 | > 100 | > 100 | > 100 | > 100 | > 100 | – | – | – | – | – | – | – | – | – | – |
| COC(=O)C[C@H](COCc1ccccc1)NC(=O)C[C@H](COCc1ccccc1)NC(=O)OC(C)(C)C | > 100 | 51.9 | 49.2 | – | > 100 | > 100 | 45.4 | > 100 | 81.2 | > 100 | – | – | – | – | – | – | – | – | – |
| CCCCCOC(=O)c1cc2cc(CCl)ccc2oc1=O | 56.6 | 40.6 | 32.9 | 5.3 | 60.2 | 35.4 | 18.4 | 14.9 | 27.4 | > 49.4 | – | – | – | – | – | – | – | – | – |
| Nc1ccc(-c2nc3cc(F)ccc3s2)cc1CO | > 100 | 51.2 | 52.1 | – | > 100 | > 100 | > 100 | > 100 | > 100 | > 100 | – | – | – | – | – | – | – | – | – |
| O=C1c2ccccc2C(C2c3ccccc3C(=O)c3cc(Br)ccc32)c2ccc(Br)cc21 (stereo unspecified) | > 100 | > 100 | > 100 | > 100 | > 100 | > 100 | > 100 | > 100 | > 100 | > 100 | – | – | – | – | – | – | – | – | – |
| O=C(O)C(O)C(O)C(O)C(=O)CO (stereo unspecified) | > 100 | > 100 | > 100 | > 100 | > 100 | > 100 | > 100 | > 100 | > 100 | > 100 | – | – | – | – | – | – | – | – | – |
| COC1CC(CC2CCC(C)C(C(C)C(=O)O)O2)OC2(OC(C)(C3CCC(C)(C4OC(C5OC(O)(CO)C(C)CC5C)CC4C)O3)CC2C)C1C (stereo unspecified) | 17.9 | 27.7 | 19.6 | 36.8 | 6.66 | 29.1 | 49.2 | 11.1 | 15.6 | 2.03 | – | – | – | – | – | – | – | – | – |
| NC(=S)N1N=C(c2ccccc2O)CC1c1ccccc1 (stereo unspecified) | > 100 | 75 | 25.5 | 78.3 | 58.5 | 39 | 70.6 | 20.2 | 28.1 | > 100 | – | – | – | – | – | – | – | – | – |
| CCCN1C(=O)CSC1=Nc1ccc2cc3ccc(N=C4SCC(=O)N4CCC)cc3nc2c1 | > 100 | > 100 | – | 90.6 | > 100 | > 100 | > 100 | > 100 | 34.8 | > 100 | > 100 | 46.5 | 32.1 | > 100 | 52.2 | > 100 | > 100 | > 100 | 14.3 |
| N#Cc1c(N)nc2c(c1-c1ccc(Br)cc1)CSc1ccccc1-2 | > 100 | > 100 | > 100 | > 100 | > 100 | > 100 | – | 77.3 | > 100 | > 100 | – | – | – | – | – | – | – | – | – |
| O=c1c2ccccc2[nH]c(=S)n1-c1ccc(N=Nc2cccc3cc(O)ccc23)cc1 | > 100 | > 100 | > 100 | > 100 | > 100 | > 100 | > 100 | > 100 | > 100 | > 100 | – | – | – | – | – | – | – | – | – |
| CC1CN=C(NS(=O)(=O)c2cc(C(=O)Nc3ccc(F)cc3)c(Cl)cc2S)NN1 (stereo unspecified) | > 100 | > 100 | > 100 | > 100 | > 100 | > 100 | > 100 | > 100 | > 100 | > 100 | – | – | – | – | – | – | – | – | – |
